According to the NIST ThermoML archive (doi:10.1016/j.jct.2013.09.024):

Assay: excess molar enthalpy (molar enthalpy of mixing); xn = mol fraction of the nth substance listed
Conditions: 101 kPa, Liquid, Flow calorimetry

CC1(C)C(=O)[C@]2(C)CC[C@H]1C2 [(-)-fenchone] + CCO
excess molar enthalpy [kcal/mol]
Conditions	283.15 K	298.15 K	313.15 K	328.15 K
x1 = 0.048	0.0418	0.0476	0.0528	0.0586
x1 = 0.097	0.0805	0.0913	0.102	0.112
x1 = 0.195	0.141	0.159	0.178	0.196
x1 = 0.286	0.184	0.209	0.234	0.258
x1 = 0.395	0.218	0.249	0.278	0.306
x1 = 0.488	0.23	0.265	0.297	0.326
x1 = 0.601	0.229	0.262	0.291	0.318
x1 = 0.701	0.21	0.239	0.264	0.286
x1 = 0.801	0.172	0.193	0.211	0.227
x1 = 0.894	0.104	0.12	0.131	0.14
x1 = 0.945	0.0569	0.065	0.071	0.076
